These results are taken from patent US20260347310A1, “PHENALKYLAMINES AND METHODS OF MAKING AND USING THE SAME” (GILGAMESH PHARMACEUTICALS, INC., priority 2022, published 2026).

A short description of series [1]: Metabolic stability in human liver microsomes (HLM). It counts as in vitro ADME. As to conditions: for stability in HLM (in words): 1 μM, 0.50 mg protein/mL, 1 mM NADPH, 37 °C, 60 min; for half-life at 1 µM / microsomal CLint at 1 µM: human liver microsomes 0.50 mg/mL, NADPH 1 mM, test compound 1 μM, 37° C., pH 7.4, 60 min. The procedure:
(§1) Test Compounds. Compounds were prepared as described above.
(§2) HLM Stability. Pooled HLM from adult male and female donors (Corning 452117) were used. Microsomal incubations were carried out in multi-well plates. Liver microsomal incubation medium consisted of PBS (100 mM, pH 7.4), MgCl2 (1 mM), and NADPH (1 mM), with 0.50 mg of liver microsomal protein per mL. Control incubations were performed by replacing the NADPH-cofactor system with PBS. Test compounds (1 μM, final solvent concentration 1.0%) were incubated with microsomes at 37° C. with constant shaking. Six time points over 60 minutes were analyzed, with 60 μL aliquots of the reaction mixture being drawn at each time point. The reaction aliquots were stopped by adding 180 μL of cold (4° C.) acetonitrile containing 200 ng/mL tolbutamide and 200 ng/mL labetalol as internal standards (IS), followed by shaking for 10 minutes, and then protein sedimentation by centrifugation at 4,000 rpm for 20 minutes at 4° C. Supernatant samples (80 μL) were diluted with water (240 μL) and analyzed for parent compound remaining using a fit-for-purpose liquid chromatography-tandem mass spectrometry (LC-MS/MS) method.
(§3) Data Analysis. The elimination constant (kel), half-life (t1/2), and intrinsic clearance (CLint) were determined in a plot of […] versus time, using linear regression analysis.

A short description of series [2]: Metabolic stability in dog liver microsomes (DLM). It is filed as in vitro ADME, Beagle dogs. To be noted: for stability in DLM (in words): 1 μM, 0.50 mg protein/mL, 1 mM NADPH, 37 °C, 60 min; for half-life at 1 µM / microsomal CLint at 1 µM: dog liver microsomes 0.50 mg/mL, NADPH 1 mM, test compound 1 μM, 37° C., pH 7.4, 60 min. On the procedure: as §1
as §2, with “DLM” for “HLM”, “Beagle dogs (Xenotech D1000)” for “and female donors (Corning 452117)”
as §3
For orientation: Microsomes from liver hold many membrane-bound enzymes, among them those of drug oxidation.

The target of series [3] is T1, 5-HT2A receptor (Homo sapiens, UniProt P28223). The series can be described thus: Radioligand binding at 5-HT2A ([3H]ketanserin). More on the design: expressed in transfected cells. The procedure:
The binding affinities of disclosed compounds at the ketanserin binding site of the 5-HT2A receptor, the LSD binding site of the 5-HT2B receptor, and the mesulergine binding site of the 5-HT2C receptor were determined in radioligand binding experiments.
Method. The affinity of the test compounds for 5-HT2A, 5-HT2B, and 5-HT2C receptors was determined in radioligand binding experiments with [^3H]ketanserin, [^3H]LSD, and [^3H]mesulergine, respectively, by WuXi AppTec (Hong Kong) Limited, using methods adapted from the literature and under conditions described in Table 7.

In series [4] the target is T1, 5-HT2A receptor. The experiment in a line: FLIPR Ca2+ flux functional agonist assay at 5-HT2A. It is filed as cell-based. More on the design: expressed in transfected cells; host or cells: HEK293. On the procedure:
Disclosed compounds were tested for agonist activity at several serotonin receptor subtypes (5-HT2A, […], and 5-HT2C) using Ca^2+ flux functional assays, with the results summarized in Table 9.
as §1
Functional Assays at 5-HT2A and 5-HT2B. Agonist activity at 5-HT2A and 5-HT2B receptors was determined using a FLIPR Ca^2+ flux assay at WuXi AppTec (Hong Kong) Limited according to their standard protocols. Briefly, stably transfected cells expressing the receptor of interest (HEK293 for both 5-HT2A and 5-HT2B) were grown and plated in a 384-well plate and incubated at 37° C. and 5% CO2 overnight. A solution of 250 mM probenecid in 1 mL FLIPR assay buffer was prepared fresh. This was combined with a fluorescent dye (Fluo-4 Direct™) to make a final assay concentration of 2.5 mM. Compounds were diluted 1:3.16 for 10 points and 750 nL was added to a 384 well compound plate using ECHO along with 30 μL assay buffer. The fluorescent dye was then added to the assay plate along with assay buffer to a final volume of 40 μL. The cell plate was incubated for 50 min at 37° C. and 5% CO2 and placed into the FLIPR Tetra along with the compound plate. 10 μL of references and compounds were then transferred from the compound plate into the cell plate and the fluorescent signal was read.
A general note: Calcium assays in cells follow changes in intracellular calcium, usually with a dye or a luminescent sensor.

A short description of series [5]: Pharmacokinetics in plasma of rats after oral and intravenous dosing; oral bioavailability. As to conditions: rat plasma, racemate, 10% captisol. It is filed as in vivo, Sprague Dawley rats. The procedure: The pharmacokinetics of disclosed compounds were determined in the plasma of rats after oral and intravenous dosing, with the results presented in Table 13.
Animals. Male Sprague Dawley rats were used in these studies. Animals were randomly assigned to treatment groups and were fasted overnight before oral dosing.
Drugs. The test compound was dissolved in 10% captisol (1) or 10% DMSO and 90% normal saline (2a) and administered intravenously (iv) at 2 mg/kg (1) or 1 mg/kg (2a) or orally (po) at 10 mg/kg (1) or 1 mg/kg (2a), calculated based on freebase, and at a volume of 10 mL/kg body weight for oral administration and 5 mL/kg for IV administration. The compounds were tested as the racemates.
Sample Collection and Bioanalysis. Blood samples were collected through the external jugular vein (via cannulation) at 0.083, 0.25, 0.5, 1, 2, 4, 8, and 24 h post-dose (total 8 time points/rat, 4 rats per administration route). At each time point, ~0.2 mL of blood was withdrawn and transferred into a pre-labeled 0.5-mL micro centrifuge tube containing 4 μL of 200 mM K2EDTA solution as anticoagulant and mixed gently by inverting the tube to facilitate mixing of anticoagulant with the blood. Blood samples were kept on ice until centrifugation. The collected blood samples were centrifuged at 4,000 rpm for 10 min at 4° C. Plasma samples were separated after centrifugation, transferred into pre-labeled tubes, and stored at −70° C. until bioanalysis. For bioanalysis, a 200-μL aliquot of internal standard prepared in acetonitrile (cetirizine, 50 ng/mL) was added (except for blank, where 200 μL of acetonitrile was added) to a 96-well Solvinert filter plate followed by 5 μL of a study plasma sample or spiked calibration standard. The filter plate was then centrifuged for 5 minutes at a speed of 2,500 rpm at 4° C. with a 96-well sample collection plate. Following centrifugation, collected samples were analyzed using a fit-for-purpose LC-MS/MS method, with authentic samples of the analyte used for calibration and identification.
Data Analysis. Pharmacokinetic parameters were estimated using the non-compartmental analysis tool of Phoenix® WinNonlin software (Ver 8.1). The drug concentrations of samples below the lower limit of quantitation (LLOQ) were designated as zero.

Like-named read-outs stand apart in the source and are kept apart here.

T1 sequence (P28223 whole entry): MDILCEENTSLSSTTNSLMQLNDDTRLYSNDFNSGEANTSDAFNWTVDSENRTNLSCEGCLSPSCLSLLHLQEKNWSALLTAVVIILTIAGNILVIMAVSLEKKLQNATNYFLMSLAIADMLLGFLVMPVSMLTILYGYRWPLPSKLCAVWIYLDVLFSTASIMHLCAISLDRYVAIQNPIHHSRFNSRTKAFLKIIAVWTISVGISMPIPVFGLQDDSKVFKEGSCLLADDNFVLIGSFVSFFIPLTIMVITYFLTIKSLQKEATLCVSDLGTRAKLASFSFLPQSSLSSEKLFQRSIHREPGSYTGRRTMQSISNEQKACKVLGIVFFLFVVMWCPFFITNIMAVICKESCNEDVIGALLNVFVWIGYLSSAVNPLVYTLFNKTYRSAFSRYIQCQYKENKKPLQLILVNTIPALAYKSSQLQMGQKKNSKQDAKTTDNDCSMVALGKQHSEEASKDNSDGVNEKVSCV

In general, microsomal CLint refers to the rate of metabolic loss divided by the concentration. Low readings indicate slow turnover, high ones rapid turnover. The Ki is a measure of affinity in units of concentration, obtained from inhibition or displacement. Low readings indicate tighter binding, high ones weaker binding. For orientation: EC50 means the concentration needed to bring the measured effect to its halfway point. High values mean weaker potency, low ones greater potency. Turning to `CCC(N)Cc1cc(OC)c(CCCCC(C)(F)F)cc1OC` (stereo not drawn) [Compound 2b, 1-(4-(5,5-difluorohexyl)-2,5-dimethoxyphenyl)butan-2-amine], in series [1], the “stability in HLM (in words)” value was “significantly higher stability compared to 1R and 1S”; the half-life at 1 µM is above 2.42 h; the microsomal CLint at 1 µM is below 9.6 µL/min/mg. Also, in series [2], the “stability in DLM (in words)” value was “significantly higher stability compared to 1R and 1S”; the half-life at 1 µM came to 1.19 h; the microsomal CLint at 1 µM was determined as 19.4 µL/min/mg. The inhibitory constant (Ki) at 5-HT2A receptor [3] turned out to be 0.00952 µM. The “binding at 5-HT2A receptors (in words)” value on 5-HT2A receptor [3] ([3H]ketanserin) is “potent ligands for 5-HT2A”. For the same compound, the midpoint of the response on 5-HT2A receptor [4], the EC50, lay at 5.06 µM. For the same compound, the “agonist activity at 5-HT2A (in words)” value on 5-HT2A receptor [4] (Ca2+ flux, potency or efficacy) was “substantially less potent than 1R and 1S in the 5-HT2A FLIPR assay”. The Emax at 5-HT2A receptor [4] (HEK293, read-out: 5-HT2A % Act @ Max Dose) came to 71.3%.

Turning to `[2H]C([2H])([2H])CCCCCc1cc(OC)c(CC(N)CC)cc1OC` (stereo not drawn) [Compound 3a, 1-(4-(hexyl-6,6,6-d3)-2,5-dimethoxyphenyl)butan-2-amine], in series [1], the “stability in HLM (in words)” value is listed as “intermediate stability”, the half-life at 1 µM was 0.517 h and the microsomal CLint at 1 µM was 44.7 µL/min/mg. In series [2], the “stability in DLM (in words)” value was “modestly greater stability than 1R or 1S”, the half-life at 1 µM worked out at 0.557 h and the microsomal CLint at 1 µM was 41.5 µL/min/mg.

In general, bioavailability refers to dose-corrected exposure relative to a reference, in per cent. In general, Cmax refers to the peak of the concentration-time curve. Take `CCCCCCc1cc(OC)c(CC(N)CC)cc1OC` (racemic) [Compound 1, 1-(4-hexyl-2,5-dimethoxyphenyl)butan-2-amine]: the bioavailability in series [5] (IV 2 mg/kg and PO 10 mg/kg, read-out: F (absolute oral bioavailability)) turned out to be 8%. Also, the C0 in series [5] (IV 2 mg/kg) worked out at 389 ng/mL. Moreover, the AUC(0-t) in series [5] (IV 2 mg/kg, read-out: AUC0-last (iv)) was determined as 354 ng·h/mL; in series [5] (PO 10 mg/kg, fasted, read-out: AUC0-last (po)), 138 ng·h/mL. Besides, the half-life in series [5] (IV 2 mg/kg, read-out: t1/2 (iv) (converted)) is 2.16 h; in series [5] (PO 10 mg/kg, fasted, read-out: t1/2 (po) (converted)) it was 2.63 h. Moreover, in series [5] (PO 10 mg/kg, fasted), the Cmax came to 35.1 ng/mL.
